The values below come from patent US10940139B2, “Compounds that interact with the Ras superfamily for the treatment of cancers, inflammatory diseases, rasopathies, and fibrotic disease” (Shy Therapeutics LLC, priority 2017, dated 2021).

The structures appear in SMILES notation.

The first assay concerns MIA-PACA2 pancreatic cancer cell lines. Briefly: Cell proliferation assay (CellTiter 96 AQueous One). The conditions noted are these: Homo sapiens, MIA PaCa-2; MIA-PACA2, same assay as the % inhibition (standard conditions). Format: cell-based.
By IC50 is commonly meant the midpoint of a concentration-inhibition curve. A lower IC50 goes with inhibition by little substance. Compound `O=c1nc(-c2ccccn2)[nH]c2ccsc12` [drawing 1494] yielded an IC50 greater than 1000 nM.
Still for that read-out and setting: next, `Oc1nc(-c2ccccn2)nc2c(-c3ccccc3)csc12` [drawing 1581]: 100 to 500 nM.

The same assay, now with this note: Homo sapiens, MIA PaCa-2; at 30 μM, MIA-PACA2.
Broadly, the inhibition is how much of the control response was suppressed. Read a high inhibition as strong suppression. For the compound `COc1ccc(CCC(=O)Nc2nnc(-c3ccccn3)[nH]2)cc1F` [drawing 1385], the inhibition at 30 µM lay in the range of 1 to 25%.
`O=c1nc(-c2ccccn2)[nH]c2ccsc12` [drawing 1494] returned an inhibition at 30 µM of 1 to 25%.
Still for that read-out and setting: for `CC1(O)CCN(C(=O)c2csc3c(O)nc(-c4ccccn4)nc23)CC1` [drawing 1572] the value was 76 to 100%.
For the compound `CCc1cc(NNC(=O)c2ccc(C#N)cc2)nc(-c2ccccn2)n1` [drawing 1511], the inhibition at 30 µM fell in the range of 76 to 100%.
Same read-out and setting: for `O=C(Nc1nc(-c2ccccn2)cs1)C1COc2ccccc2O1` (stereo not drawn) [drawing 1473] the value was 76 to 100%; for `COc1cccc(C(=O)Nc2nc(-c3ccccn3)cs2)c1` [drawing 1487], 76 to 100%.
The same measure, in the same setting: for `Nc1nc(-c2ccccn2)nc2scc(Br)c12` [drawing 1770] the value was 1 to 25%; for `COCCCCN(C)C(=O)c1csc2nc(-c3ccccn3)nc(N3CCOCC3)c12` [drawing 1683], 76 to 100%.
Still for that read-out and setting: next, `COc1cc(C)c(-c2csc3c(O)nc(-c4ccccn4)nc23)cc1C` [drawing 1745]: 76 to 100%.
`COC(=O)c1ccc(C(=O)NCC2(c3ccccc3OC)CCCC2)nc1` [drawing 1528] registered an inhibition at 30 µM of 76 to 100%.
On the same count and under the same terms, for `O=C(CC1CCCC1)NCC(=O)Nc1nnc(-c2ccccn2)[nH]1` [drawing 1415] the value was 1 to 25%; for `Oc1nc(-c2ccccn2)nc2c(-c3ccc(Cl)c(Cl)c3)csc12` [drawing 1785], 76 to 100%; for `Cc1ccc(OC2CCCC2)c(-c2csc3c(O)nc(-c4ccccn4)nc23)c1` [drawing 1720], 76 to 100%.
The same measure, in the same setting: next, `CC(C1CC1)N(CC(F)(F)F)C(=O)Cc1ccc(-c2ccccc2)cc1` (stereo not drawn) [drawing 1535]: 76 to 100%; `O=C(COCc1cccnc1)Nc1nc(-c2ccccn2)nc2sccc12` [drawing 1705]: 76 to 100%.
The same measure, in the same setting: for `COc1ccc(C(=O)Nc2nc(-c3ccccn3)cs2)cn1` [drawing 1488] the value was 76 to 100%; for `O=C(Nc1nnc(-c2ccccn2)[nH]1)c1ccc(=O)[nH]n1` [drawing 1470], 25 to 50%.
Take `O=C(Nc1nnc(-c2ccccn2)[nH]1)C1CC(=O)N(Cc2cccc(C(F)(F)F)c2)C1` (stereo not drawn) [drawing 1458]: the inhibition at 30 µM lay in the range of 76 to 100%.
Same read-out and setting: for `CC(Nc1nc(-c2ccccn2)nc2scc(-c3ccccc3)c12)c1nncn1C` (stereo not drawn) [drawing 1601] the value was 76 to 100%; for `CCCNC(=O)CN1CCN(c2nc(-c3ccccn3)nc3sc(-c4ccccc4)cc23)CC1` [drawing 1598], 76 to 100%; for `COc1ccc(NC(=O)CCc2c(C)nc(-c3ccccn3)nc2O)cn1` [drawing 1501], 76 to 100%.
Compound `CC(Oc1ccccc1C#N)C(=O)Nc1nnc(-c2ccccn2)[nH]1` (stereo not drawn) [drawing 1423] showed an inhibition at 30 µM of 76 to 100%.
Same read-out and setting: next, `O=S1(=O)CCC(N2CCN(c3nc(-c4ccccn4)nc4scc(-c5ccccc5)c34)CC2)C1` (stereo not drawn) [drawing 1608]: 76 to 100%; `O=C(c1csc2c(O)nc(-c3ccccn3)nc12)N1CCN(Cc2ccc(O)cc2)CC1` [drawing 1657]: 1 to 25%.
Same read-out and setting: next, `CN(C)Cc1ccc(F)c(-c2csc3c(O)nc(-c4ccccn4)nc23)c1` [drawing 1777]: 76 to 100%; `CC(C)CNC(=O)CN1CCN(c2nc(-c3ccccn3)nc3scc(-c4ccccc4)c23)CC1` [drawing 1614]: 76 to 100%.
The same measure, in the same setting: for `Oc1ccc(C2(c3cccc(Cl)c3)CCCC2)cc1` [drawing 1525] the value was 76 to 100%; for `Cc1ccc(CN(Cc2ccco2)C(=O)c2oc3ccccc3c2C)cc1` [drawing 1520], 1 to 25%; for `COCCNc1nc(-c2ccccn2)nc2scc(-c3ccccc3)c12` [drawing 1625], 76 to 100%.
As for `Nc1nc(O)c2scc(C(=O)N3CCC(N4CCCC4=O)CC3)c2n1` [drawing 1559], the inhibition at 30 µM fell in the range of 25 to 50%.
Still for that read-out and setting: for `O=C(CCNC(=O)c1ccco1)Nc1nnc(-c2ccccn2)[nH]1` [drawing 1417] the value was 76 to 100%; for `COc1ccccc1-c1cc(C(=O)Nc2nnc(-c3ccccn3)[nH]2)no1` [drawing 1451], 76 to 100%; for `O=C(COCc1ccncc1)Nc1nc(-c2ccccn2)nc2sccc12` [drawing 1704], 76 to 100%.
Same read-out and setting: next, `Oc1nc(-c2ccccn2)nc2c(-c3ccccc3)csc12` [drawing 1581]: 76 to 100%; `O=C(c1csc2c(O)nc(-c3ccccn3)nc12)N1CCC(c2cccc(O)c2)C1` (stereo not drawn) [drawing 1716]: 76 to 100%.
Still for that read-out and setting: next, `CCC(C)c1csc2c(OC)nc(-c3ccccn3)nc12` (stereo not drawn) [drawing 1794]: 76 to 100%.
`Nc1nc(-c2ccccn2)nc2c(-c3ccccc3Cl)csc12` [drawing 1711] came in with an inhibition at 30 µM of 76 to 100%.
On the same count and under the same terms, for `O=C(COn1ccnc1)Nc1nc(-c2ccccn2)nc2sccc12` the value was 76 to 100%; for `CC(C)(C(=O)Nc1nc(-c2ccccn2)nc2sccc12)c1ccc(C#N)cc1` [drawing 1646], 76 to 100%; for `CSc1nc(C2CC2)cc(C(=O)NCCc2ccc(S(=O)(=O)NC(=O)c3cc(C4CC4)nc(SC)c3C#N)cc2)c1C#N` [drawing 1539], 1 to 25%.
Same read-out and setting: for `O=C(OCCc1ccccc1)N1CCCc2c(O)nc(-c3ccccn3)nc21` [drawing 1554] the value was 76 to 100%; for `COc1ccc(CCNC(=O)c2csc3nc(-c4ccccn4)nc(N4CCOCC4)c23)cn1` [drawing 1639], 51 to 75%.
With `Cc1cnc(-c2ccccn2)nc1NC(=O)C(C)c1ccc(C#N)cc1` (stereo not drawn) [drawing 1690], the inhibition at 30 µM lay within 76 to 100%.
Compound `Cc1c(C(=O)Nc2nnc(-c3ccccn3)[nH]2)oc2c1C(=O)CCC2` [drawing 1404] gave an inhibition at 30 µM of 76 to 100%.
The same measure, in the same setting: next, `CC(c1ccccc1)N1CCN(C(=O)c2csc3c(O)nc(-c4ccccn4)nc23)CC1` (stereo not drawn) [drawing 1697]: 76 to 100%; `Cn1cc(-c2nc(C(=O)Nc3nnc(-c4ccccn4)[nH]3)cs2)cn1` [drawing 1403]: 76 to 100%.
Same read-out and setting: next, `Cc1cccc(CN(Cc2ccccn2)Cc2nccn2C)c1` [drawing 1519]: 76 to 100%.
The same measure, in the same setting: for `Cc1[nH]nc(CCCN(C)c2nc(-c3ccccn3)nc3sc(-c4ccccc4)cc23)c1C#N` the value was 76 to 100%; for `Oc1nc(-c2ccccn2)nc2sccc12` [drawing 1590], 76 to 100%; for `Cc1nc(-c2ccccn2)sc1C(=O)Nc1nnc(-c2ccccn2)[nH]1` [drawing 1444], 76 to 100%.
The compound `O=C(CCc1nn[nH]n1)Nc1nc(-c2ccccn2)nc2sccc12` [drawing 1766] returned an inhibition at 30 µM of 51 to 75%.
On the same count and under the same terms, next, `Oc1nc(-c2ccccn2)nc2c(-c3cncc(F)c3)csc12` [drawing 1786]: 76 to 100%; `Cc1nc(-c2ccccn2)nc(O)c1CCC(=O)NC1CCc2ccccc21` (stereo not drawn) [drawing 1504]: 76 to 100%; `CC1CCN(C(=O)c2csc3c(O)nc(N)nc23)CC1` [drawing 1558]: 1 to 25%.
`O=S(=O)(Oc1cc(C(F)(F)F)cc(C(F)(F)F)c1)N1CCc2ccccc2C1` [drawing 1532] yielded an inhibition at 30 µM of 25 to 50%.
In the case of `CC(COCc1ccccc1)C(=O)Nc1nnc(-c2ccccn2)[nH]1` (stereo not drawn) [drawing 1429], the inhibition at 30 µM is 25 to 50%.
On to `CCCCSc1nc(-c2cccs2)c(C(=O)C(F)(F)F)cc1C#N` [drawing 1523], for which the inhibition at 30 µM was in the range of 76 to 100%.
Still for that read-out and setting: for `O=c1nc(-c2ccccn2)[nH]c2scc(-c3cccs3)c12` [drawing 1490] the value was 76 to 100%; for `CCOc1cc(C(=O)Oc2c(C)ccc(C)c2C)cc(OCC)c1OCC` [drawing 1527], 76 to 100%; for `CCN(CC)S(=O)(=O)c1ccc(NCCOC)c(C(=O)NCCSCc2ccc(C)cc2)c1` [drawing 1538], 76 to 100%.
As for `O=C(c1csc2c(O)nc(-c3ccccn3)nc12)N1CCOC(c2ccccc2Cl)C1` (stereo not drawn) [drawing 1662], the inhibition at 30 µM was 76 to 100%.
On the same count and under the same terms, for `O=C1CCN(c2nc(-c3ccccn3)nc3scc(-c4ccccc4)c23)CC1` [drawing 1627] the value was 76 to 100%.
With `COc1nccc(CCNC(=O)c2csc3nc(-c4ccccn4)nc(N4CCOCC4)c23)n1` [drawing 1773], the inhibition at 30 µM was in the range of 76 to 100%.
On the same count and under the same terms, for `O=C(COc1ccc(F)cc1F)Nc1nnc(-c2ccccn2)[nH]1` [drawing 1388] the value was 51 to 75%; for `Oc1nc(-c2ccccn2)nc2c(-c3cc(F)cc(F)c3)csc12` [drawing 1776], 76 to 100%; for `O=C(c1csc2c(O)nc(-c3ccccn3)nc12)N1CCc2ccccc2CC1` [drawing 1579], 76 to 100%.
Same read-out and setting: for `O=C(Nc1nc(-c2ccccn2)cs1)c1ccccn1` [drawing 1480] the value was 76 to 100%.
In turn, `COc1nc(-c2ccccn2)nc2c(C3CCCC3)csc12` [drawing 1793] displayed an inhibition at 30 µM of 76 to 100%.
The same measure, in the same setting: next, `O=S1(=O)CCN(Cc2cccc(-c3csc4c(O)nc(-c5ccccn5)nc34)c2)CC1` [drawing 1740]: 76 to 100%.
The same measure, in the same setting: next, `Cc1cccc(C(=O)Nc2nnc(-c3ccccn3)[nH]2)n1` [drawing 1436]: 51 to 75%; `O=C(O)c1cc2nc(-c3ccccn3)nc(O)c2s1` [drawing 1726]: 51 to 75%; `Cc1noc(C)c1CC(=O)Nc1nnc(-c2ccccn2)[nH]1` [drawing 1411]: 25 to 50%.
Same read-out and setting: next, `O=C(Nc1nnc(-c2ccccn2)[nH]1)c1ccc(Oc2cccnc2)cc1` [drawing 1460]: 76 to 100%.
The compound `Nc1nc(O)c2scc(C(=O)N3CCc4ccccc4CC3)c2n1` [drawing 1561] displayed an inhibition at 30 µM of 1 to 25%.
The same measure, in the same setting: for `CN(CCc1ccncc1)C(=O)c1csc2c(O)nc(-c3ccccn3)nc12` [drawing 1577] the value was 25 to 50%; for `O=C(CCn1ccc2ccccc21)Nc1nnc(-c2ccccn2)[nH]1` [drawing 1392], 51 to 75%.
